We go through 53 compounds from patent US9951046B2, “TRPA1 modulators” (Algomedix, Inc., priority 2014, dated 2018).

Bounds are passed on as bounds.

The target in the first assay is T1, human TRPA1 (Homo sapiens, UniProt O75762).
T1 construct: expressed in transfected cells
T1 sequence (O75762 whole entry): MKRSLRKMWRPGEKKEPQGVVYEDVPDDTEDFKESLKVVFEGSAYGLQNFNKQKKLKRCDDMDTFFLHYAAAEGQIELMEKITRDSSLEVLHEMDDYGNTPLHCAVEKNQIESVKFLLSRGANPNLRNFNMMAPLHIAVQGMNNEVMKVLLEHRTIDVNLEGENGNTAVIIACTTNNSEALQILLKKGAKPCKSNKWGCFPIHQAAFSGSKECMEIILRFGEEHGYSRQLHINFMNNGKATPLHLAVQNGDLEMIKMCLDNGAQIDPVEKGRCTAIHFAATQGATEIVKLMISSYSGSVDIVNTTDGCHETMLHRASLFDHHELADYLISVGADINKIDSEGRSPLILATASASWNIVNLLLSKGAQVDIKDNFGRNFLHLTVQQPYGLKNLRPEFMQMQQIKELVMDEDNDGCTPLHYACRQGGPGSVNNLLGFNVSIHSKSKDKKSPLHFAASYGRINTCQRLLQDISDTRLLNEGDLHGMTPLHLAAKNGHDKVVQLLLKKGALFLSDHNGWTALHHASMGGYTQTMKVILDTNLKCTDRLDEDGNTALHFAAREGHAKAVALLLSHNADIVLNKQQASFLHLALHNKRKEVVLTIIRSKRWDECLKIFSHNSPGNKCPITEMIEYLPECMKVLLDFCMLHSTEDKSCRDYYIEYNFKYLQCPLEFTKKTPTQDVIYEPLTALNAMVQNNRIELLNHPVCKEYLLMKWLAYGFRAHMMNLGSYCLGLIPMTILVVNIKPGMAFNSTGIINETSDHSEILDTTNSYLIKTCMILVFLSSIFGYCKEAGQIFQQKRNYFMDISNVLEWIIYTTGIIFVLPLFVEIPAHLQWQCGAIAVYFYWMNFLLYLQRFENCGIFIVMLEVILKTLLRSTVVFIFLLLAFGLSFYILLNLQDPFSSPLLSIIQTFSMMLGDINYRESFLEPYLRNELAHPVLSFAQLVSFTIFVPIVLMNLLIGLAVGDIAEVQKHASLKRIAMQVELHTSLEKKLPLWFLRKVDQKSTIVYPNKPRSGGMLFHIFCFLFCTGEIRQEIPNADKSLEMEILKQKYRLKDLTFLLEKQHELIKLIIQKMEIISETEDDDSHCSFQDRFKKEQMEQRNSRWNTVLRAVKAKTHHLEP
Briefly: Cell-based functional intracellular calcium ([Ca2+]i) assay, Fluo-4/Fluo-8, FlexStation, challenge with reference TRPA1 agonist (FFA, AITC or 4-HNE).
Conditions: not given
The procedure: A stable HEK293 cell line that expresses human TRPA1 in an inducible manner was employed in this assay. […] The expression of TRPA1 was induced by including 1 μg/ml doxycycline in the culture medium. For the induced cells, ruthenium red (5 μM) was also added to minimize the constitutive TRPA1 channel activity and cells were used 14-18 hrs after induction. To measure [Ca^2+]i changes, cells were seeded in wells of 96-well plates at ˜100,000 cells/well and grown for 14-18 hrs to reach confluency. To prevent cell loss from subsequent washing, the wells were treated with 20 μg/ml polyornithine (MW>30,000, Sigma, St Louis, Mo.) for >15 min and rinsed once with Hank's balanced salt solution without Mg^2+ and Ca^2+. […] In some experiments, Fluo-8-AM was used instead of Fluo-4-AM as the calcium-sensitive fluorescent probe. Probenecid (2 mM) was included in all solutions to prevent the leakage of Fluo-4 or Fluo-8 from the cells. At the end of the incubation, cells were washed three times with ECS and placed in 80 μL of the same solution. Fluorescence changes were measured using a fluid handling integrated fluorescence plate reader, FlexStation (Molecular Devices, Sunnyvale, Calif.). Stock solutions of test compounds were initially solubilized in 100% DMSO and then serially diluted to achieve the desired final concentration. […] Drugs were diluted into ECS at 2× or 3× the desired final concentrations and delivered to the sample plate by an integrated robotic 8-channel pipettor at preprogrammed time points. […] Experiments were performed at 20-25° C. For certain experiments, 0.1% BSA was included with the cells and test compounds.
The kinetic data obtained at each test concentration of drug represents a series of fluorescent intensities as a function of time.
Using a sequential addition protocol, test compounds were initially applied to the cells loaded with Fluo-4 or Fluo-8 and fluorescence changes in each well monitored for 2.5 min. The plate was read again in a kinetic mode after a 15-30 min incubation with the test compounds after obtaining baseline values (about 30 s) and subsequent addition of challenge with a reference TRPA1 agonist. Reference TRPA1 agonists in testing each compound included at least one of flufenamic acid (FFA), allyl isothiocyanate (AITC) and 4-hydroxynonenal (4-HNE).
Antagonist activity can be expressed in terms of IC50 with respect to TRPA1 and agonist activity can be expressed in terms of EC50 with respect to TRPA1.
A general note: Calcium assays in cells follow changes in intracellular calcium, usually with a dye or a luminescent sensor.
On to `CCCC1COC2(CCN(C(=O)c3cc(-c4ccncc4)n(-c4ccc(F)c(F)c4)n3)CC2)O1` (centres unmarked) [Compound 96], for which the IC50 is > 25 µM.
For `O=C(c1cc(-c2ccncc2)n(-c2ccc(C(F)(F)F)c(F)c2)n1)N1CCC(N2C(=O)Cc3ccccc32)CC1` [Compound 98], the IC50 was in the range of 5 to 25 µM.
The same measure, in the same setting: the figure for `CC1COC2(CCN(C(=O)c3cc(-c4ccncc4)n(-c4ccc(C(F)(F)F)c(F)c4)n3)CC2)O1` (centres unmarked) [Compound 114] is > 25 µM; for `CCCC1COC2(CCN(C(=O)c3cc(-c4ccncc4)n(-c4ccc(C(F)(F)F)c(F)c4)n3)CC2)O1` (centres unmarked) [Compound 117] it is > 25 µM; for `O=C(c1cc(-c2ccncc2)n(-c2ccc(C(F)(F)F)nc2)n1)N1CCC(N2C(=O)Cc3ccccc32)CC1` [Compound 119] it is > 25 µM.
On the same count and under the same terms, the figure for `CC1COC2(CCN(C(=O)c3cc(-c4ccncc4)n(-c4cnccn4)n3)CC2)O1` (centres unmarked) [Compound 135] is > 25 µM.
Turning to `CCCC1COC2(CCN(C(=O)c3cc(-c4ccncc4)n(-c4cnccn4)n3)CC2)O1` (centres unmarked) [Compound 138], the IC50 is > 25 µM.
The same measure, in the same setting: as for `O=C(c1cc(-c2ccncc2)n(-c2cc(F)c(F)c(F)c2)n1)N1CCC2(CC1)OCCO2` [Compound 142], the figure is > 25 µM; as for `O=C(c1cc(-c2ccncc2)n(-c2ccc(C(F)(F)F)cc2)n1)N1CCC2(CC1)OCCO2` [Compound 145], 5 to 25 µM; as for `O=C(c1cc(-c2ccncc2)n(-c2cccc(C(F)(F)F)c2)n1)N1CCC2(CC1)OCCO2` [Compound 148], > 25 µM.

The assay is the same for the next values; noted with them: HEK293 cells expressing human TRPA1; IC50 class after addition of reference TRPA1 agonist (FFA, AITC or 4-HNE); read-out: human TRPA1-HEK Activity.
Take `O=C(c1cc(-c2ccncc2)n(-c2ccc(F)c(F)c2)n1)N1CCN2C(=O)OC[C@@H]2C1` [Compound 94]: the IC50 was > 25 µM.
Take `O=C(c1cc(-c2ccncc2)n(-c2ccc(F)c(F)c2)n1)N1CCC2(CC1)NCN(c1ccccc1)C2=O` [Compound 95]: the IC50 was > 25 µM.
On the same count and under the same terms, the figure for `CN1C(=O)NC2(CCN(C(=O)c3cc(-c4ccncc4)n(-c4ccc(F)c(F)c4)n3)CC2)C1=O` [Compound 97] is > 25 µM.
Turning to `O=C(c1cc(-c2ccncc2)n(-c2ccc(C(F)(F)F)c(F)c2)n1)N1CCC2(CC1)C(=O)NCN2c1ccc(F)cc1` [Compound 99], the IC50 was 0.001 to 5 µM.
The same measure, in the same setting: as for `O=C(c1cc(-c2ccncc2)n(-c2ccc(C(F)(F)F)c(F)c2)n1)N1CCC2(CC1)OCc1ccccc12` [Compound 101], the figure is > 25 µM.
On the same count and under the same terms, the figure for `O=C1OC2(CCN(C(=O)c3cc(-c4ccncc4)n(-c4ccc(C(F)(F)F)c(F)c4)n3)CC2)c2ccccc21` [Compound 102] is > 25 µM; for `O=C1OC2(CCN(C(=O)c3cc(-c4ccncc4)n(-c4ccc(C(F)(F)F)c(F)c4)n3)CC2)c2ccc(Cl)cc21` [Compound 103] it is > 25 µM; for `O=C(c1cc(-c2ccncc2)n(-c2ccc(C(F)(F)F)c(F)c2)n1)N1CC(=O)N2CCc3ccccc3C2C1` (centres unmarked) [Compound 104] it is > 25 µM.
For the compound `Cn1c(=O)n(C2CCN(C(=O)c3cc(-c4ccncc4)n(-c4ccc(C(F)(F)F)c(F)c4)n3)CC2)c2ccccc21` [Compound 105], the IC50 is > 25 µM.
In the case of `O=C(c1cc(-c2ccncc2)n(-c2ccc(C(F)(F)F)c(F)c2)n1)N1CCC(N2C(=O)OC[C@H]2c2ccccc2)CC1` [Compound 106], the IC50 was > 25 µM.
Same read-out and setting: as for `O=C(c1cc(-c2ccncc2)n(-c2ccc(C(F)(F)F)c(F)c2)n1)N1CCC2(CC1)SCCS2` [Compound 107], the figure is > 25 µM.
The same measure, in the same setting: as for `O=C(c1cc(-c2ccncc2)n(-c2ccc(C(F)(F)F)c(F)c2)n1)N1CCC(c2nc3ccccc3o2)CC1` [Compound 108], the figure is > 25 µM; as for `O=C(Nc1ccc2c(c1)OC(F)(F)O2)c1cc(-c2ccncc2)n(-c2ccc(C(F)(F)F)c(F)c2)n1` [Compound 109], > 25 µM; as for `CN1C(=O)COc2cc(NC(=O)c3cc(-c4ccncc4)n(-c4ccc(C(F)(F)F)c(F)c4)n3)ccc21` [Compound 110], > 25 µM.
The same measure, in the same setting: the figure for `O=C1CSC2(CCN(C(=O)c3cc(-c4ccncc4)n(-c4ccc(C(F)(F)F)c(F)c4)n3)CC2)N1` [Compound 111] is > 25 µM.
In the case of `Cn1c(=O)c(=O)n(C)c2cc(NC(=O)c3cc(-c4ccncc4)n(-c4ccc(C(F)(F)F)c(F)c4)n3)ccc21` [Compound 112], the IC50 was > 25 µM.
Same read-out and setting: the figure for `O=C(Nc1ccc2c(c1)COC2=O)c1cc(-c2ccncc2)n(-c2ccc(C(F)(F)F)c(F)c2)n1` [Compound 113] is > 25 µM; for `O=C(c1cc(-c2ccncc2)n(-c2ccc(C(F)(F)F)c(F)c2)n1)N1CCN2C(=O)OC[C@@H]2C1` [Compound 115] it is > 25 µM.
Same read-out and setting: as for `CN1C(=O)NC2(CCN(C(=O)c3cc(-c4ccncc4)n(-c4ccc(C(F)(F)F)c(F)c4)n3)CC2)C1=O` [Compound 118], the figure is > 25 µM; as for `O=C(c1cc(-c2ccncc2)n(-c2ccc(C(F)(F)F)nc2)n1)N1CCC2(CC1)C(=O)NCN2c1ccc(F)cc1` [Compound 120], 5 to 25 µM.
On to `O=C(c1cc(-c2ccncc2)n(-c2ccc(C(F)(F)F)nc2)n1)N1CCC2(CC1)C(=O)NCN2c1ccc(Cl)cc1` [Compound 121], for which the IC50 was > 25 µM.
Same read-out and setting: as for `O=C(c1cc(-c2ccncc2)n(-c2ccc(C(F)(F)F)nc2)n1)N1CCC2(CC1)OCc1ccccc12` [Compound 122], the figure is > 25 µM.
On to `O=C1OC2(CCN(C(=O)c3cc(-c4ccncc4)n(-c4ccc(C(F)(F)F)nc4)n3)CC2)c2ccccc21` [Compound 123], for which the IC50 is > 25 µM.
For the compound `O=C1OC2(CCN(C(=O)c3cc(-c4ccncc4)n(-c4ccc(C(F)(F)F)nc4)n3)CC2)c2ccc(Cl)cc21` [Compound 124], the IC50 was > 25 µM.
Consider `O=C(c1cc(-c2ccncc2)n(-c2ccc(C(F)(F)F)nc2)n1)N1CC(=O)N2CCc3ccccc3C2C1` (centres unmarked) [Compound 125], for which the IC50 was > 25 µM.
As for `Cn1c(=O)n(C2CCN(C(=O)c3cc(-c4ccncc4)n(-c4ccc(C(F)(F)F)nc4)n3)CC2)c2ccccc21` [Compound 126], the IC50 is > 25 µM.
The same measure, in the same setting: as for `O=C(c1cc(-c2ccncc2)n(-c2ccc(C(F)(F)F)nc2)n1)N1CCC(N2C(=O)OC[C@H]2c2ccccc2)CC1` [Compound 127], the figure is > 25 µM.
Same read-out and setting: as for `O=C(c1cc(-c2ccncc2)n(-c2ccc(C(F)(F)F)nc2)n1)N1CCC2(CC1)SCCS2` [Compound 128], the figure is > 25 µM; as for `O=C(c1cc(-c2ccncc2)n(-c2cnccn2)n1)N1CCC(c2nc3ccccc3o2)CC1` [Compound 129], > 25 µM; as for `O=C(Nc1ccc2c(c1)OC(F)(F)O2)c1cc(-c2ccncc2)n(-c2cnccn2)n1` [Compound 130], 5 to 25 µM.
Turning to `CN1C(=O)COc2cc(NC(=O)c3cc(-c4ccncc4)n(-c4cnccn4)n3)ccc21` [Compound 131], the IC50 was > 25 µM.
Still for that read-out and setting: as for `Cn1c(=O)c(=O)n(C)c2cc(NC(=O)c3cc(-c4ccncc4)n(-c4cnccn4)n3)ccc21` [Compound 133], the figure is > 25 µM; as for `O=C(Nc1ccc2c(c1)COC2=O)c1cc(-c2ccncc2)n(-c2cnccn2)n1` [Compound 134], > 25 µM.
Same read-out and setting: the figure for `O=C(c1cc(-c2ccncc2)n(-c2cnccn2)n1)N1CCN2C(=O)OC[C@@H]2C1` [Compound 136] is 5 to 25 µM; for `O=C(c1cc(-c2ccncc2)n(-c2cnccn2)n1)N1CCC2(CC1)NCN(c1ccccc1)C2=O` [Compound 137] it is > 25 µM; for `CN1C(=O)NC2(CCN(C(=O)c3cc(-c4ccncc4)n(-c4cnccn4)n3)CC2)C1=O` [Compound 139] it is > 25 µM.
On the same count and under the same terms, the figure for `O=C(c1cc(-c2ccncc2)n(-c2cc(F)c(F)c(F)c2)n1)N1CCC2(CC1)C(=O)NCN2c1ccccc1` [Compound 140] is 5 to 25 µM; for `O=C(c1cc(-c2ccncc2)n(-c2cc(F)c(F)c(F)c2)n1)N1CCC(n2c(=O)[nH]c3ccccc32)CC1` [Compound 141] it is 5 to 25 µM.
In the case of `O=C(c1cc(-c2ccncc2)n(-c2ccc(C(F)(F)F)cc2)n1)N1CCC2(CC1)C(=O)NCN2c1ccccc1` [Compound 143], the IC50 was 5 to 25 µM.
The same measure, in the same setting: the figure for `O=C(c1cc(-c2ccncc2)n(-c2ccc(C(F)(F)F)cc2)n1)N1CCC(n2c(=O)[nH]c3ccccc32)CC1` [Compound 144] is 5 to 25 µM; for `O=C(c1cc(-c2ccncc2)n(-c2cccc(C(F)(F)F)c2)n1)N1CCC2(CC1)C(=O)NCN2c1ccccc1` [Compound 146] it is 5 to 25 µM; for `O=C(c1cc(-c2ccncc2)n(-c2cccc(C(F)(F)F)c2)n1)N1CCC(n2c(=O)[nH]c3ccccc32)CC1` [Compound 147] it is > 25 µM.
On the same count and under the same terms, as for `O=C(c1cc(-c2ccncc2)n(-c2ccc(F)c(F)c2)n1)N1CCC2(CC1)C(=O)NCN2c1ccccc1` [Compound 149], the figure is 5 to 25 µM.
